Test results: patent US20130109682A1, “CYCLIC ETHER COMPOUNDS USEFUL AS KINASE INHIBITORS” (NOVARTIS AG, priority 2010, published 2013)
Where two headings read alike, the source gives them in different places.

What was measured:
[1] = molecular target: cABLT315 kinase (Homo sapiens, UniProt P00519); test: cABLT315 kinase Caliper assay; assay type: biochemical
Protocol: PKCα and cABLT315 Kinase Caliper Assays
Assays were performed in 384 well microtiter plates. Each assay plate contained 8-point serial dilutions for test compounds, as well as two 16-point serial dilutions of staurosporine as reference compound, plus 16 high- and 16 low controls. Liquid handling and incubation steps were done on a Thermo CatX workstation equipped with a Innovadyne Nanodrop Express. Between pipetting steps, tips were cleaned in wash cycles using wash buffer. Plates with terminated kinase reactions were transferred to the Caliper LC3000 workstations for reading. Phosphorylated and unphosphorylated peptides were separated using the Caliper microfluidic mobilitishift technology and Kinase activities were calculated from the amounts of formed phospho-peptide.
Kinase reactions were prepared in 384 low volume plates by the following sequence:
1. 0.05 μA Compound (start with 1.8 mM in 90% DMSO/10% H2O)
2. +4.5 μl 2× peptide/ATP solution
3. +4.5 μl 2× enzyme solution
4. Incubate for 60 min at 30° C.
4. +16 μl stop/run buffer
Independent of the kinase, all reactions were done performed in 50 mM HEPES, pH 7.5, 1 mM DTT, 0.02% Tween20, 0.02% BSA, and 0.6% DMSO. For cABLT315 assay specific details were as follows: [cABLT315 kinase]=2.4 nM, [ATP]=10 uM, [peptide]=2 uM, [Mg]=10 mM. For PKCα, assay specific details were as follows: [kinase]=0.012 nM, [ATP]=17 uM, [peptide]=1 uM, [Mg]=7 mM, [Ca]=0.2 mM.

[2] = molecular target: GSK3β (Homo sapiens, UniProt P49841); test: GSK3β ATP depletion assay; assay type: biochemical; conditions: read-out: GSK3b IC50
Summary of the method: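 Human GSK3β (5 nM) preincubated 15 min with 10 μM biotinylated phospho-CREB peptide in pH 7.5 Tris buffer (15 mM MgCl2, 1 mM DTT, 0.1% BSA, 2.5% DMSO). Reaction started with 2 μM ATP and run to about 50% ATP depletion. Remaining ATP measured by KinaseGlo luminescence.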

[3] = molecular target: FGFR3 kinase (Homo sapiens, UniProt P22607); test: FGFR3 kinase inhibition assay (LanthaScreen TR-FRET); assay type: biochemical
Protocol: FGFR3 Kinase Inhibition Assay
LanthaScreen™ is the detection of Time-Resolved Fluorescence Resonance Energy Transfer (TR-FRET) using lanthanide chelates to measure interactions between various binding partners. The application of TR-FRET to assay kinase activity was first described by Mathis (1995). A TR-FRET assay was used to measure FGFR3 kinase inhibitory activity. The assay panel was run on a Biomek FX liquid handling workstations. To the assay plates containing […] compound or control solutions, 4.5 μL of buffer A (50 mM TRIS-HCl pH 7.4, 2 mM DTT, 0.02% Tween 20, 0.02 mM Na3VO4, H2O nanpure) including a generic concentration of ATP (2 μM f.c.) was added per well, followed by 4.5 μL of buffer B (4 uM ATP in Buffer A) including a generic concentration of polyEAY (50 nM f.c.), FGFR3 kinase, and divalent cations. Final concentration of kinase and cations were: [FGFR3 kinase]=0.20 nM, [Mg]=3 mM, [Mn]=3 mM. After 1 hour of incubation the kinase reactions were stopped by the addition of 4.5 μL of stop solution D (50 mM EDTA, 20 mM TRIS-HCl pH 7.4, 0.04% NP-40) immediately followed by 4.5 μL of buffer A (50 mM TRIS-HCl pH 7.4, 2 mM DTT, 0.02% Tween 20, 0.02 mM Na3VO4, H2O nanpure) including the Tb-labeled P-20 antibody to give a total detection volume of 18 μL. After an incubation time of 45 min in the dark, the plates were transferred into the Pherastar fluorescence reader for counting. The effect of compound on the enzymatic activity was obtained from the linear progress curves and determined from one reading (end point measurement).

[4] = test system: KMS11 (human myeloma cell line); test: Cell proliferation assay (CellTiter-Glo), KMS11; assay type: cell-based; conditions: Homo sapiens, KMS-11
Summary of the method: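 KMS11 cells in IMDM with 10% FBS and sodium pyruvate, seeded at 2000 cells/well on assay day. Compound added at 2× to equal volume of cells, incubated 3 days at 37° C. Viability read by CellTiter-Glo luminescence; EC50 derived.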

[5] = KMS11 cells, cell proliferation, read-out: KMS11-Luc EC50

FGFR3 kinase, sequence (P22607 23-806): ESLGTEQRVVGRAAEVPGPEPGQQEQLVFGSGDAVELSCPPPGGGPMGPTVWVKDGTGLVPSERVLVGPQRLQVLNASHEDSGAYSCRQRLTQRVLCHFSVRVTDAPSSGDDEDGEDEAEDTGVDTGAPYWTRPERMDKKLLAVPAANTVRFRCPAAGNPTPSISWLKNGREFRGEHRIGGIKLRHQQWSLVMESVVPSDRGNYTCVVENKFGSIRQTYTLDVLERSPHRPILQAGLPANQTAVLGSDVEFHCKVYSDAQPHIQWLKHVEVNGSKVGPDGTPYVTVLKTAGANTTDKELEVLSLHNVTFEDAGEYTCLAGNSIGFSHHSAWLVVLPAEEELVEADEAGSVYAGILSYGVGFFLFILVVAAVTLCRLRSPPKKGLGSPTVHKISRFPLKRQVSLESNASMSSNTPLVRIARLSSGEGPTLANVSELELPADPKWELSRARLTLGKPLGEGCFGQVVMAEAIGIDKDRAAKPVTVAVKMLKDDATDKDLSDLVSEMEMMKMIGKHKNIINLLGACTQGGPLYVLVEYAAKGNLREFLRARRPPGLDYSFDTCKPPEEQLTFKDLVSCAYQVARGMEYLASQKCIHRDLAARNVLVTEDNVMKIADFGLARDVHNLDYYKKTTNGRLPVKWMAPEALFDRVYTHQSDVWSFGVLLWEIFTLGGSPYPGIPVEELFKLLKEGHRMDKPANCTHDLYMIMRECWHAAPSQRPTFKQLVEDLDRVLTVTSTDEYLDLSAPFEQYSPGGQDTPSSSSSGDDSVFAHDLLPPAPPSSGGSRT
GSK3β, sequence (P49841 whole entry, species assumed): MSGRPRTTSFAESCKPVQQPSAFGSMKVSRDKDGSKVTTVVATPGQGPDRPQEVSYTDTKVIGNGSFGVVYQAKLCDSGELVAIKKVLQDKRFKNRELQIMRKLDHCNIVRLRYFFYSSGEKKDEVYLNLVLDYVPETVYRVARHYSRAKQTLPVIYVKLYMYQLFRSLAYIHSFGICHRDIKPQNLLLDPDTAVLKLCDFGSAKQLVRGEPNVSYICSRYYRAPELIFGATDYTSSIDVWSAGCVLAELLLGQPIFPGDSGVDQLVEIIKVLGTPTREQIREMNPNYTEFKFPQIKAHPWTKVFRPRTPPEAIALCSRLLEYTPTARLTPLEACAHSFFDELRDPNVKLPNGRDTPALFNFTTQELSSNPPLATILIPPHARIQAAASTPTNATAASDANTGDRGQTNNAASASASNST

Row | SMILES | IC50 ([1]; Caliper assay) [nM] | IC50 ([2]; ATP depletion assay) [nM] | IC50 [3] [nM] | IC50 [1] [nM] | IC50 [2] [nM] | EC50 ([4]; KMS11-Luc cells) [nM] | EC50 [4, 5] [nM]
1 | COc1cc(F)c(-c2nc(C(=O)Nc3cnccc3[C@H]3C[C@@H](N)[C@](C)(O)[C@@H](C)O3)ccc2F)c(F)c1 [Example 242, N-(4-((2R,4R,5S,6R)-4-amino-5-hydroxy-5,6-dimethyltetrahydro-2H-pyran-2-yl)pyridin-3-yl)-6-(2,6-difluoro-4-methoxyphenyl)-5-fluoropicolinamide] | > 10000 | 471 | > 10000 |  |  |  | 
2 | Nc1ncc(-c2ccccc2)nc1C(=O)Nc1cnccc1[C@H]1C[C@@H](O)[C@@]2(O)CCCC[C@H]2O1 [Example 173, 3-amino-N-(4-((2R,4R,4aS,8aR)-4,4a-dihydroxyoctahydro-2H-chromen-2-yl)pyridin-3-yl)-6-phenylpyrazine-2-carboxamide] |  |  | 45 | 70 | 1.4 |  | 
3 | Nc1ncc(-c2ccccc2)nc1C(=O)Nc1cnccc1[C@@H]1C[C@H](O)[C@]2(O)CCC[C@@H]2O1 [Example 186, 3-amino-N-(4-((2S,4S,4aR,7aS)-4,4a-dihydroxyoctahydrocyclopenta[b]pyran-2-yl)pyridin-3-yl)-6-phenylpyrazine-2-carboxamide] |  |  | 3700 | 9900 | 40 | 6910 | 
4 | CC1(C)C[C@@H](N)C[C@H](c2ccncc2NC(=O)c2nc(-c3ccccc3)cnc2N)O1 [Example 296, 3-amino-N-(4-((2R,4S)-4-amino-6,6-dimethyltetrahydro-2H-pyran-2-yl)pyridin-3-yl)-6-phenylpyrazine-2-carboxamide] | 110 | 9.4 | 200 |  |  |  | 
5 | N[C@H]1C[C@@H](c2ccncc2NC(=O)c2csc(-c3c(F)cccc3F)n2)O[C@H]2CCC[C@H]21 [Example 230, N-(4-((2S,4S,4aS,7aS)-4-aminooctahydrocyclopenta[b]pyran-2-yl)pyridin-3-yl)-2-(2,6-difluorophenyl)thiazole-4-carboxamide] | > 10000 | 4580 | > 10000 |  |  |  | 2990
6 | C[C@H]1O[C@@H](c2ccncc2NC(=O)c2ccc(F)c(-c3c(F)cccc3F)n2)C[C@@H](N)[C@]1(C)O [Example 219, N-(4-((2R,4R,5S,6R)-4-amino-5-hydroxy-5,6-dimethyltetrahydro-2H-pyran-2-yl)pyridin-3-yl)-6-(2,6-difluorophenyl)-5-fluoropicolinamide] | > 10000 | 979 | > 10000 |  |  |  | 420
7 | O=C(Nc1cnccc1[C@H]1C[C@@H](O)[C@@]2(O)CCCC[C@H]2O1)c1c[nH]cc(-c2ccccc2)c1=O [Example 178, N-(4-((2R,4R,4aS,8aR)-4,4a-dihydroxyoctahydro-2H-chromen-2-yl)pyridin-3-yl)-4-oxo-5-phenyl-1,4-dihydropyridine-3-carboxamide] |  |  | > 10000 | > 10000 | 4250 | > 10000 | 
8 | Nc1cnc(-c2c(F)cccc2F)nc1C(=O)Nc1cnccc1[C@H]1C[C@@H](N)[C@@]2(O)CCC[C@H]2O1 [Example 213, 5-amino-N-(4-((2R,4R,4aS,7aR)-4-amino-4a-hydroxyoctahydrocyclopenta[b]pyran-2-yl)pyridin-3-yl)-2-(2,6-difluorophenyl)pyrimidine-4-carboxamide] |  |  | > 10000 | > 10000 | 558 | 2800 | 
9 | O=C1CC[C@H]2O[C@@H](c3ccncc3NC(=O)c3ccc(F)c(-c4c(F)cccc4F)n3)C[C@@H](O)[C@@H]2N1 [Example 196, 6-(2,6-difluorophenyl)-5-fluoro-N-(4-((2R,4R,4aS,8aR)-4-hydroxy-6-oxooctahydro-2H-pyrano[3,2-b]pyridin-2-yl)pyridin-3-yl)picolinamide] |  |  | > 10000 | > 10000 | 645 | 8100 | 
10 | N[C@@H]1C[C@H](c2ccncc2NC(=O)c2ccc(F)c(-c3c(F)cccc3F)n2)O[C@@H]2CCC[C@H]12 [Example 224, N-(4-((2R,4R,4aR,7aR)-4-aminooctahydrocyclopenta[b]pyran-2-yl)pyridin-3-yl)-6-(2,6-difluorophenyl)-5-fluoropicolinamide] | > 10000 | 363 | > 10000 |  |  |  | 650
11 | N[C@@H]1C[C@H](c2ccncc2NC(=O)c2ccc(F)c(-c3c(F)cccc3F)n2)O[C@@H]2CCC[C@]12O [Example 210, N-(4-((2R,4R,4aS,7aR)-4-amino-4a-hydroxyoctahydrocyclopenta[b]pyran-2-yl)pyridin-3-yl)-6-(2,6-difluorophenyl)-5-fluoropicolinamide] |  |  | > 10000 | > 10000 | 290 | 640 | 
12 | Nc1ncc(-c2ccccc2)nc1C(=O)Nc1cnccc1[C@@H]1C[C@H](O)[C@]2(O)CCCC[C@@H]2O1 [Example 176, 3-amino-N-(4-((2S,4S,4aR,8aS)-4,4a-dihydroxyoctahydro-2H-chromen-2-yl)pyridin-3-yl)-6-phenylpyrazine-2-carboxamide] |  |  | 8000 | 7400 | 48.5 | 3600 | 
13 | CC1(C)C[C@H](N)C[C@@H](c2ccncc2NC(=O)c2nc(-c3ccccc3)cnc2N)O1 [Example 297, 3-amino-N-(4-((2S,4R)-4-amino-6,6-dimethyltetrahydro-2H-pyran-2-yl)pyridin-3-yl)-6-phenylpyrazine-2-carboxamide] | 860 | 7.9 | 1600 |  |  |  | 
14 | CC[C@]1(O)[C@H](O)C[C@H](c2ccncc2NC(=O)c2nc(-c3c(F)cccc3F)ncc2N)O[C@@H]1C [Example 143, 5-amino-2-(2,6-difluorophenyl)-N-(4-((2R,4R,5S,6R)-5-ethyl-4,5-dihydroxy-6-methyltetrahydro-2H-pyran-2-yl)pyridin-3-yl)pyrimidine-4-carboxamide] |  |  | > 10000 | > 10000 | 102 | 1940 | 
15 | CC[C@]1(O)[C@H](N)C[C@H](c2ccncc2NC(=O)c2ccc(F)c(-c3c(F)cccc3F)n2)O[C@@H]1C [Example 232, N-(4-((2R,4R,5S,6R)-4-amino-5-ethyl-5-hydroxy-6-methyltetrahydro-2H-pyran-2-yl)pyridin-3-yl)-6-(2,6-difluorophenyl)-5-fluoropicolinamide] | > 10000 |  | > 10000 |  |  |  | 
16 | Nc1cc(F)c(-c2c(F)cccc2F)nc1C(=O)Nc1cnccc1[C@H]1C[C@@H](N)[C@@]2(O)CCCC[C@H]2O1 [Example 238, 3-amino-N-(4-((2R,4R,4aS,8aR)-4-amino-4a-hydroxyoctahydro-2H-chromen-2-yl)pyridin-3-yl)-6-(2,6-difluorophenyl)-5-fluoropicolinamide] | > 10000 | 393 | > 10000 |  |  |  | 
17 | Nc1ncc(-c2ccccc2)nc1C(=O)Nc1cnccc1[C@H]1C[C@@H](O)[C@@]2(O)CCC[C@H]2O1 [Example 195, 3-amino-N-(4-((2R,4R,4aS,7aR)-4,4a-dihydroxyoctahydrocyclopenta[b]pyran-2-yl)pyridin-3-yl)-6-phenylpyrazine-2-carboxamide] |  |  | 11 | 90 | 1 | 110 | 
